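Cells were grown in 96-well plates and exposed to each compound for 48 hours at five concentrations; endpoints were interpolated linearly between bracketing concentrations, or set to the highest concentration if not reached. Definition used: TGI = concentration required for complete inhibition of growth.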
Columns and labels:
Assay in all cases: NCI anticancer screen, dose series, 48 h
ACHN renal = test system: ACHN renal
MDA-MB-231 breast = test system: MDA-MB-231 breast
OVCAR-5 ovarian = test system: OVCAR-5 ovarian
NCI-H23 lung = test system: NCI-H23 lung
NCI-H460 lung = test system: NCI-H460 lung
RPMI-8226 leukemia = test system: RPMI-8226 leukemia
SK-MEL-5 melanoma = test system: SK-MEL-5 melanoma
HOP-62 NSCLC = test system: HOP-62 NSCLC
T-47D breast = test system: T-47D breast
HOP-92 NSCLC = test system: HOP-92 NSCLC
OVCAR-4 ovarian = test system: OVCAR-4 ovarian
MOLT-4 leukemia = test system: MOLT-4 leukemia
CCRF-CEM leukemia = test system: CCRF-CEM leukemia
SK-MEL-28 melanoma = test system: SK-MEL-28 melanoma
SN12C renal = test system: SN12C renal
NCI-H226 lung = test system: NCI-H226 lung
MCF7 breast = test system: MCF7 breast
SF-539 CNS = test system: SF-539 CNS
BT-549 breast = test system: BT-549 breast
HCT-116 colon = test system: HCT-116 colon

Compound	TGI (ACHN renal) [µM]	TGI (MDA-MB-231 breast) [µM]	TGI (OVCAR-5 ovarian) [µM]	TGI (NCI-H23 lung) [µM]	TGI (NCI-H460 lung) [µM]	TGI (RPMI-8226 leukemia) [µM]	TGI (SK-MEL-5 melanoma) [µM]	TGI (HOP-62 NSCLC) [µM]	TGI (T-47D breast) [µM]	TGI (HOP-92 NSCLC) [µM]	TGI (OVCAR-4 ovarian) [µM]	TGI (MOLT-4 leukemia) [µM]	TGI (CCRF-CEM leukemia) [µM]	TGI (SK-MEL-28 melanoma) [µM]	TGI (SN12C renal) [µM]	TGI (NCI-H226 lung) [µM]	TGI (MCF7 breast) [µM]	TGI (SF-539 CNS) [µM]	TGI (BT-549 breast) [µM]	TGI (HCT-116 colon) [µM]
CC(=O)OC12c3ccccc3-c3ccccc3C1C(C(=O)O)C2(Cl)C(=O)O (centres undefined)	> 10	> 10	> 10	> 10	> 10	> 10	> 10	> 10	> 10	> 10	> 10	> 10	> 10	> 10	> 10	> 10	> 10	> 10		
COc1ccc(/C=C/C(=N/NC(=O)N/N=C(/C=C/c2ccc(OC)cc2)C(C)(C)CN2CCCCC2)C(C)(C)CN2CCCCC2)cc1	3.19		8.16	> 10	3.82	4.23	3.01	3.93	4.1	3.08	3.96	4.18	3.39	2.92	5.83	3.02	6.26	4.11	3.58	2.6
COc1cc(OC)c2c(=O)c(OC)c(-c3ccc4c(c3)OCO4)oc2c1OC	> 100	> 100	> 100	> 100	> 100		89.8	> 100	> 100	90.9		> 100	83.5	> 100	> 100	> 100	> 100	> 100	> 100	> 100
COC(=O)C1(C(=O)OC)N=C(C)OC1c1ccccn1 (centres undefined)	> 100		> 100	> 100	> 100	> 100	> 100	> 100	> 100	> 100	> 100	> 100	> 100	> 100	> 100	> 100	> 100		> 100	> 100
NC(=O)C(=CNC(=S)Nc1ccc(Cl)c(Cl)c1)C(N)=O	> 100	> 100	> 100	> 100	> 100	> 100	> 100	> 100	> 72.9	> 100	> 100	> 100	> 100	> 100	> 100	> 100	> 100	> 100		> 100
c1cc2nnc1SCCCSc1ccc(nn1)SCCCSc1ccc(nn1)SCCCS2	> 100	> 100	> 100	> 100	> 100	> 100	> 100	> 100	> 100		> 100	> 100	> 100	> 100	> 100	> 100	> 100	> 100	> 100	> 100
COC(CC1(/C=C/O[Si](C(C)C)(C(C)C)C(C)C)C(=O)N(COCC[Si](C)(C)C)c2ccccc21)OC (centres undefined)	> 100	> 100	> 100	> 100	> 100	> 100	> 100	> 100	> 100	60	> 100	> 100	> 100	60	> 100	> 100		58.7		71.6
Cc1ccc(Nc2[nH]c(=O)[nH]c(=O)c2C)cc1Cl	> 100	> 100	> 100	> 100	> 100	> 100	> 100	> 100	> 100	> 100	> 100			> 100	> 100	> 100	59.7	> 100	> 100	> 100
COC(=O)C(C(=O)C(=O)Nc1ccccc1C#N)c1nc2ccc([N+](=O)[O-])cc2[nH]c1=O (centres undefined)	> 100	> 100	> 100	> 100	> 100		> 100	> 100	> 100	> 100	> 100	> 100	> 100	> 100	> 100	> 100	> 100	> 100	> 100	> 100
Cc1cc(=O)[nH]c2cc(NC(=O)C(CCCN=C(N)N)NC(=O)OCc3ccccc3)ccc12 (centres undefined)	> 100	> 100	> 100	> 100	> 100		> 100	> 100	> 100	> 100	> 100	> 100	> 100	> 100	> 100	> 100	> 100	> 100	> 100	> 100
CC(C)OP(=O)(OC(C)C)c1ccc2c(c1)OCCOCCOCCOCCO2	> 100	> 100		> 100	> 100	> 100	> 100	> 100	> 100			> 100	> 100	> 100	> 100	> 100	> 100	> 100	> 100	> 100
C[n+]1c2ccccc2n2c3ccccc3c(NCCc3ccccn3)c(C#N)c21	> 20.1	6.83	> 21.7	11	3.61			11.8	13.7	> 100	5.93	> 22.5	9.11	5.51		16.6	2.97	12.6	> 23.3	11.8
